Patent US9157087B2, “Inducible plant promoters and the use thereof” (University of Tennessee Research Foundation, priority 2012, dated 2015)

Test system: transgenic soybean hairy roots
Experiment: Inducibility of ppor RFP reporter by chemical treatments (SA, ethephon, MeJA) in transgenic soybean hairy roots
Type: cell-based, soybean line TN02-275
Details: 4 mg/ml ethephon (ethylene releasing chemical), 3 days; listed as Promoter 2.3

## ATATAATTAAGT (listed as DNA, chemistry not fully specified) [Motif 2.3, 12 bp SCN-inducible promoter motif, tested as tetramerized repeat 5′ of a minimal CaMV 35S promoter]
  Inducibility by Effectors ERE: induced to a much lower degree
